Source: patent US20030022906A1, “Use of pde v inhibitors” (priority 2000, published 2003)

Key:
[1] = test system: anaesthetized dogs with open thorax; test: Haemodynamics in anaesthetized dogs with open thorax; type: in vivo, dog
Text: (§1) All dose amounts are i.d. (intraduodenal), unless stated otherwise.

[2] = test system: anaesthetized dogs with open thorax; test: Nitrate interaction in anaesthetized dogs with open thorax (i.v. infusion of isosorbitol dinitrate); type: in vivo, dog; details: i.d., permanent i.v. infusion of isosorbitol dinitrate 50 μg/kg of body weight/hour
Method: Investigations of Nitrate Interaction of EMD 221829 and Sildenafil
The model and administration are as in B, but both test substances are administered with simultaneous permanent i.v. infusion of isosorbitol dinitrate (50 μg/kg of body weight/hour).

[3] = test system: normotensive Wistar rats; test: Telemetric measurements of blood pressure and heart rate over 24 hours in normotensive Wistar rats; type: in vivo, rat; details: 30, 100 and 300 mg/kg p.o.; telemetry over 24 hours
[4] = test system: spontaneously hypertensive rats; test: Telemetric measurements of blood pressure and heart rate over 24 hours in spontaneously hypertensive rats; type: in vivo, rat; details: 3, 10 and 30 mg/kg p.o.; telemetry over 24 hours
Method: Telemetric Measurements of Blood Pressure and Heart Rate Over 24 Hours in Spontaneously Hypertensive Rats
Measurements of 3, 10 and 30 mg of substance/1 kg of body weight/p.o.

[5] = test system: anaesthetized dogs with closed thorax; test: Erectile function in anaesthetized dogs with closed thorax (pressure in corpus cavernosum rigidum); type: in vivo, dog; details: 1 mg of substance/1 kg of body weight i.d.; erection initiated by stimulation of the nervus pelvinus
Method: as §1
(§2) Measurements of Erectile Function in Anaesthetized Dogs with Closed Thorax
Erections of various extent were initiated by stimulation variation of the nervus pelvinus. The pressure in the corpus cavernosum rigidum [CCR] was measured.

[6] = test system: spontaneously hypertensive rats; test: Nitrate interaction in spontaneously hypertensive rats; type: in vivo, rat; details: i.v. cumulative 0.1, 0.3, 1, 3 or 10 mg/kg; infusion of isosorbitol dinitrate 100 μg/kg of body weight/hour
Method: Nitrate Interaction in Spontaneously Hypertensive Rats
Method: surgical instrumentation and measurement of blood pressure and heart rate after intravenous cumulative administration of either EMD 221829 or sildenafil (0.1, 0.3, 1, 3 or 10 mg/kg of body weight) with simultaneous infusion of isosorbitol dinitrate (100 μg/kg of body weight/hour).

[7] = test system: anaesthetized dogs with closed thorax; test: Blood pressure and heart rate measured at the same time in anaesthetized dogs with closed thorax; type: in vivo, dog; details: 1 mg/kg i.d.
Method: as §1, §2
At the same time, the blood pressure and heart rate were measured.

[8] = "in this dose" (100 mg of substance/1 kg of body weight) i.d.

`CCCc1nn(C)c2c(=O)[nH]c(-c3cc(S(=O)(=O)N4CCN(C)CC4)ccc3OCC)nc12` [sildenafil, reference compound] was tested, and the blood pressure [1, 8] was “reduction”, the heart rate [1, 8] was “increase” and the “changes in blood pressure and heart rate with simultaneous administration of nitrate” value [2] was “significantly increased”. The blood pressure [3] was “significant dose-dependent reduction”, the heart rate [3] was “increase” and the blood pressure [4] was “significant dose-dependent reduction”. The “stimulation of erection (pressure in the corpus cavernosum rigidum)” value [5] was “Corresponding results”, the blood pressure [6] was “dose-dependent drop” and the heart rate [6] was “increase”.
For `COc1ccc(CNc2nc(C3CCC(C(=O)O)CC3)nc3sc4ccccc4c23)cc1Cl.NCCO` (stereo not drawn) [EMD 221829, trans-4-[4-(3-chloro-4-methoxybenzylamino)benzo[4,5]-thieno[2,3-d]pyrimidin-2-yl]cyclohexanecarboxylic acid, ethanolamine salt], the “haemodynamic parameters compared with sildenafil” value ([1]; 1 mg of substance/1 kg of body weight i.d.) was “clear difference”, the “cardiovascular side effects (reduction in blood pressure with reflex increase in heart rate)” value ([1]; i.d.) was “no cardiovascular side effects” and the “dose from which effects on the blood pressure and heart rate are measurable” value ([1]; i.d.) was ≥ 100 mg of substance/1 kg of body weight. The “changes in blood pressure and heart rate with simultaneous administration of nitrate” value [2] was “no changes”, the blood pressure [3] was “no changes” and the heart rate [3] was “no changes”. The blood pressure [4] was “no change”, the “stimulation of erection (pressure in the corpus cavernosum rigidum)” value [5] was “stimulates submaximal erection” and the “effect on haemodynamic parameters (blood pressure and heart rate)” value [7] was “no effect”. The blood pressure [6] was “no change” and the heart rate [6] was “no change”.
